24 compounds from patent publication US20240150303A1, “DIAMINOTRIAZINE COMPOUNDS” (BASF SE, priority 2021, published 2024) can be followed below.

SMILES strings stand for the structures. Where “and” joins values, the source holds several entries; their conditions need not be identical. Equal entries are not always repeated.

What all share (experiment): greenhouse pre-emergence herbicidal test
What all share (assay type): in vivo

One test has as its system Setaria faberi. The gist of the method: (§1)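 Seeds sown per species; compounds suspended or emulsified in water and sprayed directly after sowing, pots irrigated and covered with transparent hoods until rooting. Evaluated over 2 to 4 weeks on a 0–100 scale (100 = no emergence or complete destruction of aerial parts, 0 = normal growth).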
Another test concerns Amaranthus retroflexus. The gist of the method:
as §1

The next test relates to Echinocloa crus-galli. The gist of the method: as §1
The next test deals with Digitaria sanguinalis. The text has this: (§2) The culture containers used were plastic flowerpots containing loamy sand with approximately 3.0% of humus as the substrate. The seeds of the test plants were sown separately for each species.
(§3) For the pre-emergence treatment, the active ingredients, which had been suspended or emulsified in water, were applied directly after sowing by means of finely distributing nozzles.
(§4) The containers were irrigated gently to promote germination and growth and subsequently covered with transparent plastic hoods until the plants had rooted. This cover caused uniform germination of the test plants, unless this had been impaired by the active ingredients.
(§5) Depending on the species, the plants were kept at 10-25° C. or 20-35° C., respectively.
(§6) The test period extended over 2 to 4 weeks. During this time, the plants were tended, and their response to the individual treatments was evaluated.
(§7) Evaluation was carried out using a scale from 0 to 100. 100 means no emergence of the plants, or complete destruction of at least the aerial moieties, and 0 means no damage, or normal course of growth. A moderate herbicidal activity is given at values of at least 60, a good herbicidal activity is given at values of at least 70, and a very good herbicidal activity is given at values of at least 85.
(§8) The plants used in the greenhouse experiments were of the following species: […]

The next test has as its system Abutilon theophrasti.
Text: as §2, §3, §4, §5, §6, §7, §8

The test system of another test is Alopercurus myosuroides.
Text: as §2, §3, §4, §5, §6, §7, §8

Another test deals with Lolium multiflorum. To be noted: 62 g/ha.
Text: as §2, §3, §4, §5, §6, §7, §8

For `COc1c(Cl)cc(Cl)c(Cl)c1Nc1nc(N)nc(C(C)(C)F)n1` [Example 2], the herbicidal activity with Setaria faberi (250 g/ha), in the test with Amaranthus retroflexus (250 g/ha), with Echinocloa crus-galli (62.5 g/ha), in the test on Echinocloa crus-galli (250 g/ha), in the test with Digitaria sanguinalis (62.5 g/ha) and with Abutilon theophrasti (62.5 g/ha) was 100% each time.

For the compound `COc1c(F)ccc(Br)c1Nc1nc(N)nc(C(C)(C)F)n1` [Example 3, N4-(6-bromo-3-fluoro-2-methoxy-phenyl)-6-(1-fluoro-1-methyl-ethyl)-1,3,5-triazine-2,4-diamine], the herbicidal activity with Setaria faberi (250 g/ha), in the test on Amaranthus retroflexus (250 g/ha), in the test on Echinocloa crus-galli (62.5 g/ha), with Digitaria sanguinalis (62.5 g/ha), with Abutilon theophrasti (62.5 g/ha) and in the test on Abutilon theophrasti (250 g/ha) was 100% throughout.

Turning to `COc1c(Br)ccc(Cl)c1Nc1nc(N)nc(C(C)(C)F)n1` [Example 4], the herbicidal activity with Setaria faberi (250 g/ha), with Amaranthus retroflexus (250 g/ha), in the test with Echinocloa crus-galli (62.5 g/ha), with Echinocloa crus-galli (250 g/ha), in the test with Digitaria sanguinalis (62.5 g/ha) and in the test on Abutilon theophrasti (62.5 g/ha) was 100% each time.

With `COc1c(F)cc(Br)c(C)c1Nc1nc(N)nc(C(C)(C)F)n1` [Example 5], the herbicidal activity in the test with Setaria faberi (250 g/ha) is 100%; in the test on Amaranthus retroflexus (250 g/ha), 100%; with Echinocloa crus-galli (250 g/ha) it was 100% and 85%; in the test with Digitaria sanguinalis (250 g/ha) it was 100%; in the test with Abutilon theophrasti (250 g/ha), 90%.

As to `COc1c(F)cc(Cl)c(C)c1Nc1nc(N)nc(C(C)(C)F)n1` [Example 7], the herbicidal activity in the test on Setaria faberi (125 g/ha), in the test with Amaranthus retroflexus (32 g/ha), with Echinocloa crus-galli (125 g/ha), in the test on Digitaria sanguinalis (32 g/ha), in the test on Abutilon theophrasti (32 g/ha) and in the test on Abutilon theophrasti (125 g/ha) was 100% in each case.

For `COc1c(F)cc(F)c(C)c1Nc1nc(N)nc(C(C)(C)F)n1` [Example 8], the herbicidal activity with Setaria faberi (125 g/ha), in the test with Amaranthus retroflexus (32 g/ha), in the test with Echinocloa crus-galli (125 g/ha), in the test with Digitaria sanguinalis (32 g/ha), in the test on Abutilon theophrasti (32 g/ha) and in the test with Abutilon theophrasti (125 g/ha) was 100% each time.

As for `COc1c(Cl)cc(F)c(Cl)c1Nc1nc(N)nc(C(C)(C)F)n1` [Example 10], the herbicidal activity with Setaria faberi (250 g/ha), in the test on Amaranthus retroflexus (32 g/ha), with Amaranthus retroflexus (250 g/ha), in the test on Digitaria sanguinalis (32 g/ha), with Abutilon theophrasti (32 g/ha) and with Abutilon theophrasti (250 g/ha) was 100% throughout.

Consider `COc1c(Cl)cc(F)c(Br)c1Nc1nc(N)nc(C(C)(C)F)n1` [Example 11], for which the herbicidal activity with Setaria faberi (250 g/ha), with Amaranthus retroflexus (32 g/ha), with Echinocloa crus-galli (250 g/ha), in the test with Digitaria sanguinalis (32 g/ha), in the test on Alopercurus myosuroides (250 g/ha) and in the test on Abutilon theophrasti (32 g/ha) was 100% throughout.

Regarding `COc1c(Cl)cc(Br)c(Cl)c1Nc1nc(N)nc(C(C)(C)F)n1` [Example 12], the herbicidal activity in the test on Setaria faberi (250 g/ha), with Amaranthus retroflexus (250 g/ha), in the test with Echinocloa crus-galli (250 g/ha), in the test with Alopercurus myosuroides (250 g/ha) and with Abutilon theophrasti (250 g/ha) was 100% throughout.

On to `COc1c(F)cc(F)c(Br)c1Nc1nc(N)nc(C(C)(C)F)n1` [Example 13], for which the herbicidal activity in the test with Setaria faberi (62.5 g/ha), with Amaranthus retroflexus (31 g/ha), with Echinocloa crus-galli (31 g/ha), in the test with Echinocloa crus-galli (62.5 g/ha), in the test with Alopercurus myosuroides (62.5 g/ha) and with Abutilon theophrasti (31 g/ha) was 100% in each case.

On to `COc1c(C)ccc(C)c1Nc1nc(N)nc(C(C)(C)F)n1` [Example 14], for which the herbicidal activity with Setaria faberi (125 g/ha) is given as 100%; in the test with Amaranthus retroflexus (62 g/ha) it was 100%; in the test on Echinocloa crus-galli (62 g/ha) it was 100%; in the test with Echinocloa crus-galli (125 g/ha) it was 98%; with Alopercurus myosuroides (125 g/ha), 98%; with Abutilon theophrasti (62 g/ha), 100%.

In the case of `COc1c(F)cc(F)c(C(F)(F)F)c1Nc1nc(N)nc(C(C)(C)F)n1` [Example 19], the herbicidal activity in the test with Setaria faberi (62 g/ha), in the test with Amaranthus retroflexus (62.5 g/ha), in the test on Echinocloa crus-galli (62 g/ha), in the test on Echinocloa crus-galli (62.5 g/ha), in the test with Alopercurus myosuroides (62 g/ha) and in the test on Abutilon theophrasti (62.5 g/ha) was 100% each time.

In the case of `COc1c(Cl)ccc(Cl)c1Nc1nc(N)nc(C(C)(C)F)n1` [Example 20], the herbicidal activity with Setaria faberi (62 g/ha), in the test with Amaranthus retroflexus (62.5 g/ha), with Echinocloa crus-galli (62 g/ha), with Echinocloa crus-galli (62.5 g/ha), in the test on Alopercurus myosuroides (62 g/ha) and with Abutilon theophrasti (62.5 g/ha) was 100% each time.

Turning to `CC#CCOc1c(Br)cc(F)c(Cl)c1Nc1nc(N)nc(C(C)(C)F)n1` [Example 32], the herbicidal activity in the test with Setaria faberi (62 g/ha), in the test with Amaranthus retroflexus (62.5 g/ha), in the test on Echinocloa crus-galli (62.5 g/ha), in the test on Alopercurus myosuroides (62 g/ha), with Abutilon theophrasti (62 g/ha) and in the test with Abutilon theophrasti (62.5 g/ha) was 100% each time.

On to `COc1c(Cl)cc(Cl)c(C)c1Nc1nc(N)nc(C(F)(F)F)n1` [Example 33], for which the herbicidal activity in the test on Setaria faberi (125 g/ha) amounted to 100%; in the test on Amaranthus retroflexus (62.5 g/ha), 100%; in the test with Echinocloa crus-galli (62.5 g/ha) it was 98%; in the test on Echinocloa crus-galli (125 g/ha), 100%; with Alopercurus myosuroides (125 g/ha), 100%; in the test with Abutilon theophrasti (62.5 g/ha), 100%.

Regarding `COc1c(Br)cc(C)c(C)c1Nc1nc(N)nc(C(C)F)n1` (stereo not shown) [Example 46], the herbicidal activity stood at 100% in the test on Setaria faberi (62 g/ha); 100% with Setaria faberi (62.5 g/ha); 100% with Amaranthus retroflexus (62 g/ha); 100% with Amaranthus retroflexus (62.5 g/ha); 100% with Echinocloa crus-galli (62.5 g/ha); 80% with Lolium multiflorum.

With `COc1c(Br)cc(C)c(C)c1Nc1nc(N)nc(C2(F)CCCC2)n1` [Example 47], the herbicidal activity is 90% in the test on Setaria faberi (62 g/ha); 100% in the test with Setaria faberi (62.5 g/ha); 100% in the test with Amaranthus retroflexus (62.5 g/ha); 100% in the test on Echinocloa crus-galli (62.5 g/ha); 80% with Lolium multiflorum.

With `COc1c(Br)cc(C)c(C)c1Nc1nc(N)nc(C(C)(C)OC)n1` [Example 48], the herbicidal activity is given as 100% with Setaria faberi (31 g/ha); 80% in the test with Setaria faberi (62 g/ha); 100% in the test with Amaranthus retroflexus (31 g/ha); 70% in the test on Echinocloa crus-galli (31 g/ha); 90% in the test with Echinocloa crus-galli (62 g/ha); 98% with Lolium multiflorum.

As for `COc1c(F)ccc(Cl)c1Nc1nc(N)nc(C2(F)CCCC2)n1` [Example 53], the herbicidal activity was 100% in the test with Setaria faberi (62.5 g/ha); 100% in the test on Amaranthus retroflexus (62 g/ha); 100% in the test on Echinocloa crus-galli (62 g/ha); 98% with Echinocloa crus-galli (62.5 g/ha); 90% in the test on Alopercurus myosuroides (62.5 g/ha); 100% with Abutilon theophrasti (62 g/ha).

In the case of `CC#CCOc1c(F)cc(Br)c(Cl)c1Nc1nc(N)nc(C(C)(C)F)n1` [Example 59], the herbicidal activity is recorded as 100% in the test with Setaria faberi (62 g/ha); 100% in the test on Setaria faberi (62.5 g/ha); 100% in the test with Amaranthus retroflexus (62 g/ha); 95% in the test on Echinocloa crus-galli (62.5 g/ha); 95% with Alopercurus myosuroides (62 g/ha); 100% with Abutilon theophrasti (62.5 g/ha).

With `COc1c(Cl)cc(Br)c(C)c1Nc1nc(N)nc(C2(F)CCCC2)n1` [Example 61], the herbicidal activity came to 85% in the test on Setaria faberi (62 g/ha); 100% with Amaranthus retroflexus (31 g/ha); 100% in the test on Echinocloa crus-galli (31 g/ha); 70% in the test with Echinocloa crus-galli (62 g/ha); 75% with Alopercurus myosuroides (62 g/ha); 100% in the test on Abutilon theophrasti (31 g/ha).

Turning to `COc1c(Cl)cc(C)c(Cl)c1Nc1nc(N)nc(C(C)(C)F)n1` [Example 63], the herbicidal activity with Setaria faberi (31 g/ha) is reported as 100%; in the test on Amaranthus retroflexus (31 g/ha) it was 80%; in the test with Amaranthus retroflexus (62 g/ha), 100%; with Echinocloa crus-galli (62 g/ha) it was 100%; in the test on Alopercurus myosuroides (31 g/ha), 80%; with Abutilon theophrasti (62 g/ha) it was 100%.

For the compound `C#CCOc1c(Cl)cc(C)c(Cl)c1Nc1nc(N)nc(C(C)(C)F)n1` [Example 64], the herbicidal activity in the test with Setaria faberi (62 g/ha) was determined as 100%; in the test on Echinocloa crus-galli (62 g/ha), 100%; in the test with Lolium multiflorum, 98%; in the test with Abutilon theophrasti (62 g/ha), 100%.

`COc1c(Cl)cc(F)c(C)c1Nc1nc(N)nc(C2(F)CC2)n1` [Example 92]: the herbicidal activity in the test on Setaria faberi (62 g/ha), with Amaranthus retroflexus (62 g/ha), in the test on Echinocloa crus-galli (62 g/ha), with Echinocloa crus-galli (62.5 g/ha), with Alopercurus myosuroides (62.5 g/ha) and with Abutilon theophrasti (62.5 g/ha) was 100% each time.
